From patent US20230060873A1, “COMPOUNDS AND METHODS FOR FORMING ION CHANNELS IN BIOLOGICAL MEMBRANES” (Washington University, priority 2021, published 2023)

Columns and labels:
B. subtilis cells = test: Lactate dehydrogenase release (resofurin fluorescence), MAcBCE/MAkBCE and controls; type: cell-based, Bacillus subtilis; settings: 37° C, potassium lactate/NAD+ solution
Protocol: A 2 mL liquid culture of transformed B. subtilis cells was grown at 37° C. in LB media supplemented with […] kanamycin, until OD600=0.6. Cells were collected by centrifugation at 2000 rpm over 3 min. The bacterial pellet was washed twice in lactate/NAD^+ solution (95 mM potassium lactate, 10 mM nicotinamide adenine dinucleotide (NAD^+), 10 mM HEPES, pH adjusted to 7.4 with KOH). After the last centrifugation step, the bacteria were resuspended until OD600=1.0 in the lactate/NAD^+ solution, then diluted 100× in the same solution. The working fluorophore solution was a 1 mM of resazurin sodium salt (Alfa Cesar) in water. The experiment was started with 3 mL of lactate/NAD^+ solution in a quartz cuvette, then 3.1 μL of resazurin solution was added (timepoint t1, 50 sec) for a 1 μM final concentration, followed by the addition of 100 μL of the diluted B. subtilis suspension (timepoint t2, 100 sec). After 150 sec (timepoint t3, 250 sec), 10 μL of diaphorase (Worthinton Biochemical Corporation) 10 mg/mL solution was added. The final step involved the addition of 0.62 μL of a 10 mM stock solution of dialkylated diaza lariat ether (LEC10) in TFE (timepoint t4, 400 sec), for a final LEC10 concentration of 2 μM; or 3.1 μL of a 2 mM stock solution of valinomycin in DMSO, for a final valinomycin concentration of 2 μM; or 3.1 μL of a 20 mg/mL stock solution of lysozyme in lactate/NAD^+ solution, for a final lysozyme concentration of 20 μg/mL; or 3.1 μL of 10 mM stock solution of each MAcBCE or MAkBCE compounds in TFE, for final concentrations of 10 μM. Fluorescence intensity was recorded each second using a Horiba Fluoromax 4 spectrometer (λexcitation=550 nm; λemission=583 nm). […] To normalize, the fluorescence intensity was divided by the fluorescence level just before timepoint t4. […]
Experiments were repeated at least three times per condition. To normalize, the fluorescence intensity was divided by the fluorescence level just before timepoint t4.

B. subtilis membrane = test: DiSC3(5) depolarization assay, lariat ethers; type: cell-based, Bacillus subtilis; settings: 2 μM compound; 60 mM KCl, NaCl or NMDG-Cl; NMDG-MeSO3 solution; 25° C
Protocol: Dialkylated lariat ethers LEC6-LEC14 were then tested for their ability to depolarize a B. subtilis membrane using the fluorescent dye 3,3-dipropylthiadicarbocyanine (DiSC3(5)), which undergoes membrane voltage-dependent partitioning between the intracellular and the extracellular medium. FIGS. 23-31 show the time course of the DiSC3(5) fluorescence due to the activity of dialkylated lariat ethers with alkyl chains 6 to 14 carbons in length. The experiment was performed in a NMDG-MeSO3 solution (100 mM NMDG, 10 mM HEPES, pH adjusted to 7.4 with methanesulfonic acid). The events are: t1, addition of dye; t2, addition of B. subtilis; t3, addition of a 2 M KCl or a 2 M NMDG-Cl solution up to a final concentration of 60 mM; t4, addition of dialkylated lariat ether up to 2 μM. Control experiments were performed that were similar to the two previously described experiments, with the exception that additional NMDG-MeSO3 solution without cells was added at timepoint t2. The experiments were normalized relative to the final fluorescence intensity in the control experiments, as described below.
To conduct the experiments shown in FIGS. 23-31, a 2-mL liquid culture of B. subtilis cells was grown at 37° C. in LB media until OD600=0.600, and then collected by centrifugation at 2000 rpm during 3 min. The bacteria were washed once in NMDG-MeSO3 solution (100 mM NMDG, 10 mM HEPES, pH adjusted to 7.4 with methanesulfonic acid) or dextrose solution (200 mM dextrose, 10 mM Tris, pH adjusted to 7.4 with HCl) depending on the experiment. The centrifugation step was repeated and the bacteria were resuspended until OD600=1.0 in the same solution. The working dye solution was a 200 μM solution of DiSC3(5) (3,3′-dipropylthiadicarbocyanine iodide; Tokyo Chemical Industry) in DMSO. […] After 150 sec (timepoint t3, 250 sec) the fluorescence stabilized to a minimum intensity and 100 μL of 2M NMDG-Cl, 2M NaCl or 2 M KCl solution was added to reach a about 60 mM final concentration of the salt. […] Fluorescence intensity was recorded each second using a Horiba Fluoromax 4 spectrometer (excitation wavelength=640 nm; emission wavelength=670 nm). […] To normalize the fluorescence, experiments in the same conditions but without adding bacteria were performed, normalization was done by dividing the fluorescence by the final fluorescence level of these experiments.
Cell hyperpolarization (more negatively charged inside the cell) results in an uptake of the dye, while cell membrane depolarization (more positively charged inside the cell) results in a release of the dye. The accumulation of the dye in the interior of the cell can be detected by a decrease in fluorescence due to self-quenching, which enables the dye to be utilized as an indirect reporter of changes in cell membrane voltage. […]

| Molecule | resofurin fluorescence (LDH release) (B. subtilis cells; 2 μM) | relative DiSC3(5) release in the presence of different cations (B. subtilis membrane) | resofurin fluorescence (LDH release) (B. subtilis cells; 20 μg/mL) |
| --- | --- | --- | --- |
| CC(C)[C@@H]1NC(=O)[C@H](C)OC(=O)[C@@H](C(C)C)NC(=O)[C@@H](C(C)C)OC(=O)[C@H](C(C)C)NC(=O)[C@H](C)OC(=O)[C@@H](C(C)C)NC(=O)[C@@H](C(C)C)OC(=O)[C@H](C(C)C)NC(=O)[C@H](C)OC(=O)[C@@H](C(C)C)NC(=O)[C@@H](C(C)C)OC1=O [valinomycin] | no effect | only when K^+ was added |  |
| lysozyme |  |  | increase in the resofurin fluorescence levels |
